Assay results: patent US20110253633A1, “CATANIONIC VESICLES, PROCESS FOR PREPARING SAME AND APPLICATIONS THEREOF” (COMMISSARIAT A L'ENERGIE ATOMIQUE ET AUX ENERGIES ALT., priority 2008, published 2011)
Like-named read-outs stand apart in the source and are kept apart here.

Experiments:
[1] = Confocal microscopy of solutes with low internal pH vesicles; assay type: physicochemical; conditions: for localisation of solute encapsulated during preparation: confocal microscopy after 7 days of dialysis; for waiting time before the vesicles absorb the solute spontaneously: vesicles prepared without addition of solute
Experimental: Optionally, solute to be encapsulated can be added. If the vesicles were prepared without addition of solute in the preceding stages, they are then able to absorb certain compounds present in solution, for example Rhodamine B or Rhodamine 6G. It is sufficient to add the solute and wait about ten minutes before the vesicles absorb the solute spontaneously.
The presence of vesicles in the solution is checked by confocal microscopy after labelling with Oregon Green 488: take about 100 mg of solution, and add 20 μL of a saturated aqueous solution of Oregon Green 488, diluted 10-fold. Observation by confocal microscopy is carried out according to the usual techniques. An image of the vesicles is obtained, with the positive walls marked with the negative stain (FIG. 2). The vesicles are well separated.
The presence of vesicles in the solution and encapsulation of Rhodamine 6G is checked by confocal microscopy according to the usual techniques. […] The same observation can be carried out after labelling with Oregon Green 488: to 20 μL of solution, add 10 μL of a saturated aqueous solution of Oregon Green 488, diluted 10-fold.
After 7 days of dialysis, withdraw the solution from the cassette using a syringe and store it at room temperature.
After 20 minutes, zones with high concentration of Rhodamine 6G are observed by confocal microscopy (FIG. 14).

[2] = Permeability to anions and degree of encapsulation (dialysis, fluorescence at 522 nm); assay type: physicochemical; conditions: of the initial Oregon Green
Experimental: Stir at 50° C. for 72 hours.
The solution is made up to 3 mL by adding a solution of CTACl at 1.5 mM in a borate buffer solution at pH=9. The fluorescence emission at 522 nm with excitation at 502 nm is measured with a Varian Cary Eclipse fluorescence spectrometer for all the solutions prepared from each of the samples taken. The concentration of Oregon Green in each sample is proportional to the fluorescence emission to within an arbitrary factor that is not important for the measurement.
(FIG. 11). […] The ratio of the fluorescence measured from the initial solution to the fluorescence extrapolated to t=0 makes it possible to measure the degree of encapsulation. 60% of the initial Oregon Green is therefore encapsulated.

[3] = Confocal microscopy of solutes with high internal pH vesicles; assay type: physicochemical; conditions: Example 11 vesicles, waiting time of one minute
Experimental: The presence of vesicles in the solution is checked by confocal microscopy after adding Rhodamine 6G: take about 100 μL of solution, and add 10 μL of an aqueous solution of Rhodamine 6G at 10 μM. Observation by confocal microscopy is carried out according to the usual techniques.
The presence of vesicles in the solution is checked by confocal microscopy by adding Rhodamine 6G as described above.

Row | penetration of stain added after dialysis ([1]; Example 2 vesicles, excess of negative stain) | degree of encapsulation [2] [%] | spontaneous encapsulation of solute added after dialysis [3] | Structure (SMILES) | localisation of solute encapsulated during preparation [1] | waiting time before the vesicles absorb the solute spontaneously [1] | spontaneous encapsulation of solute added after dialysis ([1]; Example 12 vesicles, after 20 minutes) | concentration in the vesicles extrapolated to t=0 (initial concentration in the solution 1.5 mM) [µM] | permeability of the vesicles to Rhodamine 6G (not told) | degree of encapsulation (of the initial Rhodamine 6G) [%]
1 | – | – | – | CCN(CC)c1ccc2c(-c3ccccc3C(=O)O)c3ccc(=[N+](CC)CC)cc-3oc2c1.[Cl-] [Rhodamine B, Chloride of Rhodamine B] | exclusively encapsulated inside the vesicles, not outside | about ten | – | – | – | –
2 | – | – | – | CC/N=c1\cc2oc3cc(NCC)c(C)cc3c(-c3ccccc3C(=O)OCC)c-2cc1C.Cl [Rhodamine 6G, Chloride of Rhodamine 6G] | present inside the vesicles, and exclusively inside | about ten | accumulated preferentially | 500 | 8.1 10^−12 cm/s | 30
3 | does not penetrate into the vesicles | 60 | spontaneous encapsulation | O=C(O)c1ccccc1-c1c2cc(F)c(=O)cc-2oc2cc(O)c(F)cc12 [Oregon Green] | – | – | – | – | – | –
